Test results as given in US20100278776A1, “PHARMACEUTICAL COMPOSITIONS FOR MODULATING A KINASE CASCADE AND METHODS OF USE THEREOF” (Kinex Pharmaceuticals, LLC, priority 2007, published 2010).
Where two headings read alike, the source gives them in different places.

Columns and labels:
[1] = tested on: Jurkat cells; assay: Leukemia cell growth inhibition, Jurkat; type: cell-based; details: Homo sapiens; Jurkat (Adult T cell leukemia)
[2] = tested on: HT29 (human colon cancer) xenograft; assay: Oral potency in staged HT29 mouse xenografts; details: 25 mg/kg bid; at day 5 dose lowered to 15 mg/kg bid
[3] = tested on: H460 cells; assay: Dasatinib-resistant cell growth inhibition (MTT), H460; type: cell-based; details: Homo sapiens, NCI-H460, 8.0×10^3 cells/well, 1.5% FBS, 78 Hr
Protocol: The OD570 was measured using microplate reader. Growth inhibition curves and EC50/IC50 were determined using GraphPad Prism 4 statistical software. Data was normalized to represent percent of maximum response.

[4] = tested on: L3.6pl cell line; assay: Cell growth inhibition (BrdU assay), L3.6pl; type: cell-based, human
Description: L3.6pl cells are previously described in Trevino et al. Am J. Pathol.

[5] = tested on: EGFR tyrosine kinase (EGF Y845); assay: EGFR tyrosine kinase autophosphorylation in whole cells; type: cell-based
Protocol: (§1) AZ28 serves as a positive comparator to show what a validated Src inhibitor should do in these assays. After treatment with compound, cells were lysed, subjected to PAGE and probed with a battery of antibodies. […] In addition, off-target protein phosphorylation was also investigated. Further, induction of apoptosis was evaluated via Caspase 3 cleavage. Multiple doses of each compound were tested because the trends in response to increasing drug concentration are the most reliable indicator of activity.
This site is not a direct Src phosphorylation site.

[6] = target: PKCα(h) (Homo sapiens, UniProt P17252); assay: Isolated kinase activity, PKCα; type: biochemical; details: @ 10 μM
[7] = tested on: Caspase-3 cleavage; assay: Induction of apoptosis via Caspase 3 cleavage; type: cell-based; details: HT29 and c-Src527F/NIH-3T3 cells
Protocol: as §1
Cleavage of Caspase-3 is a good measure of induction of apoptosis.

[8] = target: T1, Src (Homo sapiens, UniProt P12931, Y530F); assay: Src kinase activity in whole cells (auto- and transphosphorylation, PAGE/antibodies); type: cell-based
T1 construct: expressed in transfected cells; host or cells: c-Src527F/NIH-3T3 (mouse fibroblasts transfected with human c-Src Y527F); part of the results come from HT-29 (endogenous human Src)
Protocol: as §1

[9] = tested on: PI3 kinase; assay: Isolated kinase activity, PI3 kinase; type: biochemical; details: @ 10 μM
[10] = target: EGFR(h) (Homo sapiens, UniProt P00533); assay: Isolated kinase activity, EGFR; type: biochemical; details: @ 10 μM
Chain of EGFR(h) (P00533 25-1210): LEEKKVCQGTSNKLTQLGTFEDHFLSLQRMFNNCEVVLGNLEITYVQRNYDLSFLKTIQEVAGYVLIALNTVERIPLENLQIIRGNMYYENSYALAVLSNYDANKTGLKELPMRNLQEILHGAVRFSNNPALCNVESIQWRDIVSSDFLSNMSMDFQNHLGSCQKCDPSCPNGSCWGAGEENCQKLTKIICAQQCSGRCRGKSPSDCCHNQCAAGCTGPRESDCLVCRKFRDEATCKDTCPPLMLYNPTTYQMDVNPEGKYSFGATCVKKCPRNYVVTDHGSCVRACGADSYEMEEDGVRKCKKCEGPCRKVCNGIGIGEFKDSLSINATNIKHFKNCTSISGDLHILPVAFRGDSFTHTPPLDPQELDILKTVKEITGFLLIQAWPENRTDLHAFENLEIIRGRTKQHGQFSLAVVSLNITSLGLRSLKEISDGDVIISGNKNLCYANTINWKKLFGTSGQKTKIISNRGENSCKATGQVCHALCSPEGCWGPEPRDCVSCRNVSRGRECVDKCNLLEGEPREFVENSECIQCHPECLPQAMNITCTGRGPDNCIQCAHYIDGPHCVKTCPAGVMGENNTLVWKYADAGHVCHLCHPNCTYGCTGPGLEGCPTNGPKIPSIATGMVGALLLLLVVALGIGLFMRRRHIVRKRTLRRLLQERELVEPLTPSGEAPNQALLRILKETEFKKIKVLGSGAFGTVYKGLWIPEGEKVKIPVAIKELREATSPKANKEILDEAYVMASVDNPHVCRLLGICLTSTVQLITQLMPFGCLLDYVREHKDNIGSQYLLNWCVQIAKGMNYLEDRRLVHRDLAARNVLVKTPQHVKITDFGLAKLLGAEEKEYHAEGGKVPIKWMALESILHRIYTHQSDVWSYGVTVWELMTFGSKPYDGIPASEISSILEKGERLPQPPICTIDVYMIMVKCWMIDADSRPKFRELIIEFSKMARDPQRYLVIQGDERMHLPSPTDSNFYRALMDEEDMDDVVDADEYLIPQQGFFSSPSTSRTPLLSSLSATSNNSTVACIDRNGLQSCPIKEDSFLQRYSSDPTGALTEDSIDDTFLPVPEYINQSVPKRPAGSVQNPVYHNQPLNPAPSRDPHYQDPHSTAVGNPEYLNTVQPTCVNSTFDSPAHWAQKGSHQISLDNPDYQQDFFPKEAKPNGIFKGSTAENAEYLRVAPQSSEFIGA

[11] = target: T2, PDGF receptor tyrosine kinase Y572/574 (Mus musculus, UniProt P26618); assay: PDGF receptor autophosphorylation in whole cells; type: cell-based
T2 construct: endogenous in cells; host or cells: c-Src527F/NIH-3T3
Protocol: as §1
This is thought not to be a direct Src substrate in cells.

[12] = target: isolated Src (Homo sapiens, UniProt P12931); assay: Titration against isolated Src; type: biochemical
[13] = target: IR(h) (Homo sapiens, UniProt P06213); assay: Isolated kinase activity, IR; type: biochemical; details: @ 10 μM
[14] = target: Lyn(h) (Homo sapiens, UniProt P07948); assay: Isolated kinase activity, Lyn; type: biochemical; details: @ 10 μM
Chain of Lyn(h) (P07948 whole entry): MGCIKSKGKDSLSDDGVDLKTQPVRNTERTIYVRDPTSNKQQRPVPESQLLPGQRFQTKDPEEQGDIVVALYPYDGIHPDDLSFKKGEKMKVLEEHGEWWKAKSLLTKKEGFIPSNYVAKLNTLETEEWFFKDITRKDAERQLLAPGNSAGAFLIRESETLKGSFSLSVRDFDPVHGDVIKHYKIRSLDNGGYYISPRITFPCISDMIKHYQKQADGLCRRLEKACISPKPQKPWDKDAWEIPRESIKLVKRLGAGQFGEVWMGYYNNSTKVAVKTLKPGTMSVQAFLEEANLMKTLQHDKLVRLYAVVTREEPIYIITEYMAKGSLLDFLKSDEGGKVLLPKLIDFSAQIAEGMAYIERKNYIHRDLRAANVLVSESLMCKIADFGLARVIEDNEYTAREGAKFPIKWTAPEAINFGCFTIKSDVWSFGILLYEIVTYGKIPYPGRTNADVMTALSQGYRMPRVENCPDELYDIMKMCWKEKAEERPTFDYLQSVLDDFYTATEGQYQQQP

[15] = tested on: c-Src527F/NIH3T3 cells; assay: Cell growth inhibition (BrdU assay), c-Src 3T3; type: cell-based; details: Mus musculus
Protocol: The cells were routinely cultured in DMEM supplemented with Fetal Bovine Serum (2.0% v/V), L-glutamine (2 mM) and Sodium Pyruvate (1 mM).
(§2) In the BrdU Assay for cell growth inhibition, quantitation of cell proliferation was based on the measurement of BrdU incorporation during DNA synthesis. The Cell Proliferation ELISA BrdU assay kit (colorimetric) was obtained from Roche Applied Science and performed as per vendor instructions.
(§3) The growth inhibition (GI) is determined from the formula GI=(T0−Tn×100/T0−CONn) where T0 is the BrdU growth of untreated cells at time “0”, Tn is the BrdU growth of treated cells at day “n” and CONn is the control BrdU growth of control cells at day “n”. The GI50 was extrapolated and the data plotted using XL-Fit 4.0 software.
(§4) For 96 well culture plate experiments, c-Src 3T3 medium was supplemented with 10 mM HEPES buffer. HT-29 cells were seeded in standard tissue culture 96-well plates and c-Src 3T3 cells were seeded in 96-well plates coated with Poly-D-lysine (BIOCOAT™). To increase CO2 diffusion, c-Src 3T3 96-well plates were incubated with their lids raised by ˜2 mm using sterile rubber caps.
(§5) Samples were reconstituted in DMSO at 20 mM and intermediate dilutions made using DMEM containing 10% FBS. […] Plates were assayed for BrdU and the data analyzed as above for GI50.

[16] = target: FGFR2(h) (Homo sapiens, UniProt P21802); assay: Isolated kinase activity, FGFR2; type: biochemical; details: @ 10 μM
[17] = target: Lck(h) (Homo sapiens, UniProt P06239); assay: Isolated kinase activity, Lck; type: biochemical; details: @ 10 μM
[18] = target: IGF-1R(h) (Homo sapiens, UniProt P08069); assay: Isolated kinase activity, IGF-1R; type: biochemical; details: @ 10 μM
[19] = tested on: total phosphotyrosine; assay: Total phosphotyrosine levels in cells; type: cell-based; details: HT29 and c-Src527F/NIH-3T3 cells
Protocol: as §1

[20] = target: Pyk2(h) (Homo sapiens, UniProt Q14289); assay: Isolated kinase activity, Pyk2; type: biochemical; details: @ 10 μM
[21] = target: PDGFRβ(h) (Homo sapiens, UniProt P09619); assay: Isolated kinase activity, PDGFRβ; type: biochemical; details: @ 10 μM
[22] = target: ZAP-70(h) (Homo sapiens, UniProt P43403); assay: Isolated kinase activity, ZAP-70; type: biochemical; details: @ 10 μM
Chain of ZAP-70(h) (P43403 whole entry): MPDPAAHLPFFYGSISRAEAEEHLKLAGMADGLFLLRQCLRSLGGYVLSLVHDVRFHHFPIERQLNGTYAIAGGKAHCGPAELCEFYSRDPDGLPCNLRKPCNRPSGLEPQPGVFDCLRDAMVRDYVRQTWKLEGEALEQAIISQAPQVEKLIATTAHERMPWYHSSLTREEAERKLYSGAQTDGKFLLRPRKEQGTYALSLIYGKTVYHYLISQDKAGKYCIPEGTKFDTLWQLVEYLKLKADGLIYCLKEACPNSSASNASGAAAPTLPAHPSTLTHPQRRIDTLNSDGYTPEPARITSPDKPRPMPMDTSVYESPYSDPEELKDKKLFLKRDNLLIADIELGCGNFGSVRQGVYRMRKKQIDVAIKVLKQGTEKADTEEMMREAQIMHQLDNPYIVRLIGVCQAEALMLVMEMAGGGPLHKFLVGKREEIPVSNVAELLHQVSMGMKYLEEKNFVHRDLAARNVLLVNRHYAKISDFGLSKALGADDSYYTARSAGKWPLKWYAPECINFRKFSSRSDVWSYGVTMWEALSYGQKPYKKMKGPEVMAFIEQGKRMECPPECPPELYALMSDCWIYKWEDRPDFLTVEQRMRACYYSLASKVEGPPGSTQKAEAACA

[23] = tested on: FAK Y397; assay: FAK autophosphorylation in whole cells; type: cell-based; details: c-Src527F/NIH3T3 cells
Protocol: as §1
FAK Y397 is mainly a FAK autophosphorylation site and only a poor Src transphorylation site. AZ28 is not a potent FAK inhibitor (see isolated enzyme data in Example 8).

[24] = tested on: HT29 cell line; assay: Cell growth inhibition (BrdU assay), HT29; type: cell-based, human
Protocol: The HT29 cell line is a NCI standard human colon carcinoma cell line.
as §2, §3, §4, §5

[25] = target: Fyn(h) (Homo sapiens, UniProt P06241); assay: Isolated kinase activity, Fyn; type: biochemical; details: @ 10 μM
[26] = target: MAPK2(h) (Homo sapiens, UniProt P28482); assay: Isolated kinase activity, MAPK2; type: biochemical; details: @ 10 μM
Chain of MAPK2(h) (P28482 whole entry): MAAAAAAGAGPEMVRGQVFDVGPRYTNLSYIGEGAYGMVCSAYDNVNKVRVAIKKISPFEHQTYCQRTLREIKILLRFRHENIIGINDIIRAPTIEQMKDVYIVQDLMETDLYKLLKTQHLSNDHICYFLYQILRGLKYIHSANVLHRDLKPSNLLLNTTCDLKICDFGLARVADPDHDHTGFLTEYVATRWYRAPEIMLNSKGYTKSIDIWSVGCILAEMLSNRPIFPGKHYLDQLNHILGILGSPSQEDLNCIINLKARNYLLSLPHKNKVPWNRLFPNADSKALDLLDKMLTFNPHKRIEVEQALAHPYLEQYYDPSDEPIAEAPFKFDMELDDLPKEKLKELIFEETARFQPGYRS

[27] = target: Yes(h) (Homo sapiens, UniProt P07947); assay: Isolated kinase activity, Yes; type: biochemical; details: @ 10 μM
Chain of Yes(h) (P07947 whole entry): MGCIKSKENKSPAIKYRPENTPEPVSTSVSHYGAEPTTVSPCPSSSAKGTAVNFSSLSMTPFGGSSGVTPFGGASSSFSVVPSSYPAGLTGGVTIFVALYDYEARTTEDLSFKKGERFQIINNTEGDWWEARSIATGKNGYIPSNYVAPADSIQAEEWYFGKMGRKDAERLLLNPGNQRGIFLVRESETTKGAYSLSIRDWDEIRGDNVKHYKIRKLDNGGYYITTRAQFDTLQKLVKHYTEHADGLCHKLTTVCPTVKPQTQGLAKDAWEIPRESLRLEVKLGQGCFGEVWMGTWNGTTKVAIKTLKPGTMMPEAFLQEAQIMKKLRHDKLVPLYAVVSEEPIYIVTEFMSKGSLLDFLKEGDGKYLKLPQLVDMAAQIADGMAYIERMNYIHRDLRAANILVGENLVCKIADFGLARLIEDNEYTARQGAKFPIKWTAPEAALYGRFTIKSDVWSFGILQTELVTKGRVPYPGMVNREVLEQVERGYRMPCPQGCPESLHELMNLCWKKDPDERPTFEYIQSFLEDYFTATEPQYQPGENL

[28] = target: isolated FAK (Homo sapiens, UniProt Q05397); assay: Titration against isolated FAK; type: biochemical
Chain of isolated FAK (Q05397 whole entry): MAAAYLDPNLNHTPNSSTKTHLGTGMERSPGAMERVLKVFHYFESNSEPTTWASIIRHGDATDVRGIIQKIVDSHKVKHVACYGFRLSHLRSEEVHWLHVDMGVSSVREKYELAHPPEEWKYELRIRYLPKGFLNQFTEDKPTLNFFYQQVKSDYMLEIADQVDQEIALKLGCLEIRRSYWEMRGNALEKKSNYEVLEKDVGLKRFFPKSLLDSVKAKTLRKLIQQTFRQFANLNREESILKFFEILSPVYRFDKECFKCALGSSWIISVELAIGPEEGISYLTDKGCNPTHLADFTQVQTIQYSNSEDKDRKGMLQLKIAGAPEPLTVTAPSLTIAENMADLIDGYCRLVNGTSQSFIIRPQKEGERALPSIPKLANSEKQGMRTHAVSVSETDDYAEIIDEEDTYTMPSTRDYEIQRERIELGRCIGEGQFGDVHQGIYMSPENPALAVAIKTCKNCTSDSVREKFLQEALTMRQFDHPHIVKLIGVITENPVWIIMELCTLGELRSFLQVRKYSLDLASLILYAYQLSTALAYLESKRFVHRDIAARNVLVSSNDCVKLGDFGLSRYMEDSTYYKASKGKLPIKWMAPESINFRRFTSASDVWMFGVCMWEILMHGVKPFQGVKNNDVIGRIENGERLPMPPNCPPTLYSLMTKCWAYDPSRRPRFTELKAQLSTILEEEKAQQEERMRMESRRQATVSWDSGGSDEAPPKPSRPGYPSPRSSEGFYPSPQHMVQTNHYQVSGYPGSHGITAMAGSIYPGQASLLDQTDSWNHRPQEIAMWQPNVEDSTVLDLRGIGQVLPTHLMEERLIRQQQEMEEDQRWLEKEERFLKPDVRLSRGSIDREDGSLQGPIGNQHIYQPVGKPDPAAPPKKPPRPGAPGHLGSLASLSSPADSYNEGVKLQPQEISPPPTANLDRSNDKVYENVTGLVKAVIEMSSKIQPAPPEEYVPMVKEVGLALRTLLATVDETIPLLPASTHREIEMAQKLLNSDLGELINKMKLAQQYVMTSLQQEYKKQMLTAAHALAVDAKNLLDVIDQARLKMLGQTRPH

[29] = target: Abl(h) (Homo sapiens, UniProt P00519); assay: Isolated kinase activity, Abl; type: biochemical; details: @ 10 μM
[30] = tested on: A549 cells; assay: Cell growth inhibition (BrdU assay), A549; type: cell-based, human; details: A549 (Lung); Drug 1 = Tarceva
Protocol: (§6) Cell lines being evaluated are: SKOV-2, K562, HT-29, A549, and MDA231. […] Except MDA231, this line is grown at 37° C. and 0% CO2.
(§7) Except MDA231, this line is grown at 37° C. and 0% CO2. Brdu assay was performed at T=0 and T=72.
(§8) Growth Inhibition. The BrdU data was used to determine the % growth inhibition for each sample concentration using the formula:
(§9) where T0=Fluorescence of cells at time 0; T1=Fluorescence of treated cells at x hours; Con=Fluorescence of control cells at x hours. T1 values T0 values were designated as T, cytotoxicity. The GI50 was estimated using XLFit excluding T1 values T0 (cytotoxicity).

[31] = tested on: SKOV-3 cells; assay: Cell growth inhibition (BrdU assay), SKOV-3; details: SKOV-3 (Ovarian); Drug 1 = taxol
Protocol: as §6, §7, §8, §9

SMILES: Cc1nc(Nc2ncc(C(=O)Nc3c(C)cccc3Cl)s2)cc(N2CCN(CCO)CC2)n1 [Dasatinib]
- GI50 [1]: 8 nM
- body weight [2]: weight loss
- IC50 [3]: 90 nM

SMILES: Nc1ccn([C@@H]2O[C@H](CO)[C@@H](O)C2(F)F)c(=O)n1 [Gemcitabine, gemcitabine]
- GI50 ([4]; Homo sapiens, L3.6pl, BrdU, T=72, read-out: GI50, Single): 1.76 nM
- Drug 1:compound (I) GI50 ratio ([4]; L3.6pl (Pancreas), Drug 1 = Gemcitabine): 1/13

SMILES: COc1cc2c(Nc3c(Cl)ccc4c3OCO4)ncnc2cc1OCCCN1CCCCC1 [KX2-328]
- EGFR tyrosine kinase autophosphorylation [5]: potently inhibits
- percent activity of isolated kinase relative to control (untreated) [6]: 111%
- induction of apoptosis (Caspase-3 cleavage) [7]: not effective in inducing apoptosis
- phosphorylation of Paxillin Y-31 (Src transphosphorylation substrate) ([8]; c-Src527F/NIH-3T3 cells): inhibited Src trans-phosphorylation
- phosphorylation of FAK Tyr 925 (Src transphosphorylation substrate) ([8]; whole cells): inhibited Src trans-phosphorylation
- phosphorylation of Shc Y239/240 (Src transphosphorylation substrate) ([8]; whole cells): inhibited Src trans-phosphorylation
- percent activity of isolated kinase relative to control (untreated) [9]: 99%
- percent activity of isolated kinase relative to control (untreated) [10]: 3%
- PDGF receptor autophosphorylation (Y572/574) [11]: dose response reduction
- IC50 [12]: 8 nM
- fold less potent against cell growth than against isolated Src [12]: 10-100 ×
- percent activity of isolated kinase relative to control (untreated) [13]: 125%
- percent activity of isolated kinase relative to control (untreated) [14]: 0%
- GI50 ([15]; NIH3T3, c-Src 3T3): 99 nM
- GI50 ([15]; NIH3T3, c-Src527F/NIH3T3): 87 nM
- GI50 ([15]; NIH3T3, c-Src/NIH-3T3 engineered cell line): 99 nM
- activity at 0.1 µM ([15]; NIH3T3, 100 nM, read-out: c-Src 3T3 Growth, % of Control, Mean, n = 3): 13%
- activity at 1 µM ([15]; NIH3T3, 1.0 uM, read-out: c-Src 3T3 Growth, % of Control, Mean, n = 3): < 0%
- activity at 10 µM ([15]; NIH3T3, 10 uM, read-out: c-Src 3T3 Growth, % of Control, Mean, n = 3): < 0%
- percent activity of isolated kinase relative to control (untreated) [16]: 94%
- percent activity of isolated kinase relative to control (untreated) [17]: 1%
- percent activity of isolated kinase relative to control (untreated) [18]: 110%
- total phosphotyrosine levels [19]: reduction in the total phosphotyrosine levels
- percent activity of isolated kinase relative to control (untreated) [20]: 43%
- percent activity of isolated kinase relative to control (untreated) [21]: 98%
- percent activity of isolated kinase relative to control (untreated) [22]: 97%
- FAK autophosphorylation (Y397) [23]: some inhibition
- GI50 ([24]; Homo sapiens, HT-29, HT29 (Colon), read-out: GI50): 647 nM
- GI50 ([24]; Homo sapiens, HT-29, HT29, read-out: GI50): 794 nM
- GI50 ([24]; Homo sapiens, HT-29, NCI human colon cancer cell line HT29): 794 nM
- activity at 0.05 µM ([24]; Homo sapiens, HT-29, 50 nM, read-out: HT-29 Growth, % of Control, Mean, n = 3): 73%
- activity at 0.5 µM ([24]; Homo sapiens, HT-29, 500 nM, read-out: HT-29 Growth, % of Control, Mean, n = 3): 10%
- activity at 5 µM ([24]; Homo sapiens, HT-29, 5 uM, read-out: HT-29 Growth, % of Control, Mean, n = 3): < 0%
- percent activity of isolated kinase relative to control (untreated) [25]: 2%
- percent activity of isolated kinase relative to control (untreated) [26]: 105%
- percent activity of isolated kinase relative to control (untreated) [27]: 1%
- IC50 [28]: > 500 nM
- fold less potent against isolated FAK (than isolated Src) [28]: ≥ 100 ×
- percent activity of isolated kinase relative to control (untreated) [29]: 1%

SMILES: C#Cc1cccc(Nc2ncnc3cc(OCCOC)c(OCCOC)cc23)c1 [Tarceva]
- Drug 1:compound (I) GI50 ratio [30]: 134

SMILES: O=C1[O][Pt]2([NH][C@@H]3CCCC[C@H]3[NH]2)[O]C1=O [oxaliplatin]
- Drug 1:compound (I) GI50 ratio ([24]; HT29 (Colon), Drug 1 = oxaliplatin): 59

SMILES: CC(=O)O[C@H]1C(=O)[C@@]2(C)[C@H]([C@H](OC(=O)c3ccccc3)[C@]3(O)C[C@H](OC(=O)[C@H](O)[C@@H](NC(=O)c4ccccc4)c4ccccc4)C(C)=C1C3(C)C)[C@]1(OC(C)=O)CO[C@@H]1C[C@@H]2O [taxol]
- Drug 1:compound (I) GI50 ratio [31]: 0.40
